Data as given in paper PMC6321124, “Hydrophilic Linear Peptide with Histidine and Lysine Residues as a Key Factor Affecting Antifungal Activity” (International Journal of Molecular Sciences, 2018).
In brackets after ≈: the same amount, converted by molar mass. Residues, ends and D or L forms follow the SMILES beside them.

Key:
[1] = system: C. albicans (CCARM 14007, amphotericin B-resistant strain); settings: CCARM 14007, 48 h, pH 6
[2] = system: C. albicans (CCARM 14020, fluconazole-resistant strain); settings: CCARM 14020, 48 h, pH 6
[3] = system: Trichoderma virens (KCTC 16924); settings: KCTC 16924, 48 h, pH 6
[4] = system: C. albicans (CCARM 14004, fluconazole-resistant strain); settings: CCARM 14004, 48 h, pH 6
[5] = system: C. parapsilosis (CCARM 14016); settings: CCARM 14016, 48 h, pH 6
[6] = system: F. graminearum (KCTC 16656); settings: KCTC 16656, 48 h, pH 6
[7] = system: Trichoderma viride (KCTC 16992); settings: KCTC 16992, 48 h, pH 6
[8] = system: F. solani (KCTC 6326); settings: KCTC 6326, 48 h, pH 6
[9] = system: C. krusei (CCARM 14017); settings: CCARM 14017, 48 h, pH 6
[10] = system: F. moniliforme (KCTC 6149); settings: KCTC 6149, 48 h, pH 6
[11] = system: Tricophyton rubrum (KCTC 6345); settings: KCTC 6345, 48 h, pH 6
[12] = system: C. albicans (KCTC 7270); settings: KCTC 7270, 48 h, pH 6
[13] = system: F. oxysporum (KCTC 16909); settings: KCTC 16909, 48 h, pH 6
[14] = system: C. albicans (CCARM 14001, fluconazole-resistant strain); settings: CCARM 14001, 48 h, pH 6
[15] = system: C. gloeosporioides (KCTC 6169); settings: KCTC 6169, 48 h, pH 6
[16] = system: Aspergillus flavus (KCTC 6905); settings: KCTC 6905, 48 h, pH 6
[17] = system: C. albicans cells; assay: Intracellular ROS (DCFH-DA, flow cytometry); type: cell-based; settings: peptides at MICs or 10 mM H2O2 for 6 h, DCFH-DA 20 min
Experimental: DCF fluorescence was measured using 5000 events/sample following excitation with a 488-nm wavelength laser and reading through a 525/40 biopass filter using a CytoFLEX flow cytometer.

[18] = Calcein leakage, artificial mammalian model membrane; settings: PC/Ch/SM (1:1:1) LUVs, 10 μM lipids
Experimental: The dried lipids were prehydrated with dye buffer solution (80 mM calcein, 10 mM MES, 50 mM NaCl, pH 6.2), vortexed for 1 min, and incubated for 30 min at 50 °C. The suspension was freeze-thawed in liquid nitrogen for nine cycles to generate large unilamellar vesicles (LUVs) and extruded 30 times through polycarbonate filters (two stacked 0.2-μm pore-size filters) using an Avanti Mini-Extruder (Avanti Polar Lipids Inc., Alabaster, AL, USA). Calcein-entrapped vesicles were separated from free calcein by gel filtration chromatography on a Sephadex G-50 column. Entrapped LUVs in suspensions containing 10 μM lipids were incubated with various concentrations of the peptide. The fluorescence of the released calcein was assessed with a microtiter SpectraMax M5 reader at an excitation wavelength of 480 nm and an emission wavelength of 520 nm. Complete (100%) release was achieved via the addition of Triton X-100 to a final concentration of 0.1% (v/v). The apparent percentage of calcein release was calculated in accordance with the following equation: Release (%) = 100 × (F − F0)/(Ft − F0) (2) where F and Ft represent the fluorescence intensity after the addition of the peptides and Triton X-100, respectively, and F0 represents the fluorescence of the intact vesicles.

[19] = system: HaCaT cells; assay: Cytotoxicity (MTT assay); type: cell-based; settings: at 3.13 µM, 24 h
[20] = system: C. albicans; settings: peptides at MICs for 6 h, measured at 550 nm
[21] = system: C. albicans cells; assay: SYTOX Green uptake (flow cytometry); type: cell-based; settings: peptides at MICs for 30 min, 0.5 μM SYTOX Green pre-incubated 15 min
Experimental: C. albicans cells were pre-incubated with 0.5 μM SYTOX Green for 15 min in the dark, incubated with the indicated peptides at MICs for 30 min, and then analyzed using a CytoFLEX flow cytometer (Beckman Coulter Inc., Brea, CA, USA).

Row | Compound | MIC [1] | MIC [2] | MIC [3] | MIC [4] | MIC [5] | MIC [6] | MIC [7] | MIC [8] | MIC [9] | MIC [10] | MIC [11] | MIC [12] | MIC [13] | MIC [14] | MIC [15] | MIC [16] | other results
1 | NCCCC[C@H](NC(=O)[C@H](CCCCN)NC(=O)[C@@H](N)Cc1c[nH]cn1)C(N)=O [(HKK)1] (H-His-Lys-Lys-NH2) | 1024 µM (≈ 420 µg/mL) | 1024 µM (≈ 420 µg/mL) | 512 µM (≈ 210 µg/mL) | 1024 µM (≈ 420 µg/mL) | 1024 µM (≈ 420 µg/mL) | 512 µM (≈ 210 µg/mL) | 256 µM (≈ 105 µg/mL) | 256 µM (≈ 105 µg/mL) | 512 µM (≈ 210 µg/mL) | 256 µM (≈ 105 µg/mL) | 512 µM (≈ 210 µg/mL) | 1024 µM (≈ 420 µg/mL) | 256 µM (≈ 105 µg/mL) | 1024 µM (≈ 420 µg/mL) | 1024 µM (≈ 420 µg/mL) | 256 µM (≈ 105 µg/mL) | 
2 | NCCCC[C@H](NC(=O)[C@H](CCCCN)NC(=O)[C@H](Cc1c[nH]cn1)NC(=O)[C@H](CCCCN)NC(=O)[C@H](CCCCN)NC(=O)[C@@H](N)Cc1c[nH]cn1)C(N)=O [(HKK)2] (H-HKKHKK-NH2) | 64 µM (≈ 51.5 µg/mL) | 64 µM (≈ 51.5 µg/mL) | 32 µM (≈ 25.7 µg/mL) | 64 µM (≈ 51.5 µg/mL) | 64 µM (≈ 51.5 µg/mL) | 64 µM (≈ 51.5 µg/mL) | 64 µM (≈ 51.5 µg/mL) | 32 µM (≈ 25.7 µg/mL) | 64 µM (≈ 51.5 µg/mL) | 32 µM (≈ 25.7 µg/mL) | 64 µM (≈ 51.5 µg/mL) | 64 µM (≈ 51.5 µg/mL) | 64 µM (≈ 51.5 µg/mL) | 64 µM (≈ 51.5 µg/mL) | 16 µM (≈ 12.9 µg/mL) | 64 µM (≈ 51.5 µg/mL) | 
3 | NCCCC[C@H](NC(=O)[C@H](CCCCN)NC(=O)[C@H](Cc1c[nH]cn1)NC(=O)[C@H](CCCCN)NC(=O)[C@H](CCCCN)NC(=O)[C@H](Cc1c[nH]cn1)NC(=O)[C@H](CCCCN)NC(=O)[C@H](CCCCN)NC(=O)[C@@H](N)Cc1c[nH]cn1)C(N)=O [(HKK)3] (H-HKKHKKHKK-NH2) | 64 µM (≈ 76.6 µg/mL) | 64 µM (≈ 76.6 µg/mL) | 16 µM (≈ 19.2 µg/mL) | 64 µM (≈ 76.6 µg/mL) | 32 µM (≈ 38.3 µg/mL) | 32 µM (≈ 38.3 µg/mL) | 16 µM (≈ 19.2 µg/mL) | 16 µM (≈ 19.2 µg/mL) | 16 µM (≈ 19.2 µg/mL) | 16 µM (≈ 19.2 µg/mL) | 32 µM (≈ 38.3 µg/mL) | 64 µM (≈ 76.6 µg/mL) | 32 µM (≈ 38.3 µg/mL) | 64 µM (≈ 76.6 µg/mL) | 8 µM (≈ 9.58 µg/mL) | 16 µM (≈ 19.2 µg/mL) | 
4 | NCCCC[C@H](NC(=O)[C@H](CCCCN)NC(=O)[C@H](Cc1c[nH]cn1)NC(=O)[C@H](CCCCN)NC(=O)[C@H](CCCCN)NC(=O)[C@H](Cc1c[nH]cn1)NC(=O)[C@H](CCCCN)NC(=O)[C@H](CCCCN)NC(=O)[C@H](Cc1c[nH]cn1)NC(=O)[C@H](CCCCN)NC(=O)[C@H](CCCCN)NC(=O)[C@@H](N)Cc1c[nH]cn1)C(N)=O [(HKK)4] (H-HKKHKKHKKHKK-NH2) | 32 µM (≈ 50.9 µg/mL) | 32 µM (≈ 50.9 µg/mL) | 16 µM (≈ 25.5 µg/mL) | 32 µM (≈ 50.9 µg/mL) | 32 µM (≈ 50.9 µg/mL) | 16 µM (≈ 25.5 µg/mL) | 4 µM (≈ 6.36 µg/mL) | 4 µM (≈ 6.36 µg/mL) | 4 µM (≈ 6.36 µg/mL) | 4 µM (≈ 6.36 µg/mL) | 16 µM (≈ 25.5 µg/mL) | 32 µM (≈ 50.9 µg/mL) | 4 µM (≈ 6.36 µg/mL) | 32 µM (≈ 50.9 µg/mL) | 2 µM (≈ 3.18 µg/mL) | 8 µM (≈ 12.7 µg/mL) | 
5 | NCCCC[C@H](NC(=O)[C@H](CCCCN)NC(=O)[C@H](Cc1c[nH]cn1)NC(=O)[C@H](CCCCN)NC(=O)[C@H](CCCCN)NC(=O)[C@H](Cc1c[nH]cn1)NC(=O)[C@H](CCCCN)NC(=O)[C@H](CCCCN)NC(=O)[C@H](Cc1c[nH]cn1)NC(=O)[C@H](CCCCN)NC(=O)[C@H](CCCCN)NC(=O)[C@H](Cc1c[nH]cn1)NC(=O)[C@H](CCCCN)NC(=O)[C@H](CCCCN)NC(=O)[C@H](Cc1c[nH]cn1)NC(=O)[C@H](CCCCN)NC(=O)[C@H](CCCCN)NC(=O)[C@@H](N)Cc1c[nH]cn1)C(N)=O [(HKK)6] (H-HKKHKKHKKHKKHKKHKK-NH2) | 16 µM (≈ 38 µg/mL) | 16 µM (≈ 38 µg/mL) | 8 µM (≈ 19 µg/mL) | 16 µM (≈ 38 µg/mL) | 16 µM (≈ 38 µg/mL) | 8 µM (≈ 19 µg/mL) | 2 µM (≈ 4.76 µg/mL) | 2 µM (≈ 4.76 µg/mL) | 4 µM (≈ 9.51 µg/mL) | 2 µM (≈ 4.76 µg/mL) | 8 µM (≈ 19 µg/mL) | 16 µM (≈ 38 µg/mL) | 2 µM (≈ 4.76 µg/mL) | 16 µM (≈ 38 µg/mL) | 1 µM (≈ 2.38 µg/mL) | 4 µM (≈ 9.51 µg/mL) | 
6 | NCCCC[C@H](NC(=O)[C@H](CCCCN)NC(=O)[C@H](Cc1c[nH]cn1)NC(=O)[C@H](CCCCN)NC(=O)[C@H](CCCCN)NC(=O)[C@H](Cc1c[nH]cn1)NC(=O)[C@H](CCCCN)NC(=O)[C@H](CCCCN)NC(=O)[C@H](Cc1c[nH]cn1)NC(=O)[C@H](CCCCN)NC(=O)[C@H](CCCCN)NC(=O)[C@H](Cc1c[nH]cn1)NC(=O)[C@H](CCCCN)NC(=O)[C@H](CCCCN)NC(=O)[C@H](Cc1c[nH]cn1)NC(=O)[C@H](CCCCN)NC(=O)[C@H](CCCCN)NC(=O)[C@H](Cc1c[nH]cn1)NC(=O)[C@H](CCCCN)NC(=O)[C@H](CCCCN)NC(=O)[C@H](Cc1c[nH]cn1)NC(=O)[C@H](CCCCN)NC(=O)[C@H](CCCCN)NC(=O)[C@@H](N)Cc1c[nH]cn1)C(N)=O [(HKK)8] (H-HKKHKKHKKHKKHKKHKKHKKHKK-NH2) | 8 µM (≈ 25.3 µg/mL) | 8 µM (≈ 25.3 µg/mL) | 4 µM (≈ 12.7 µg/mL) | 8 µM (≈ 25.3 µg/mL) | 8 µM (≈ 25.3 µg/mL) | 4 µM (≈ 12.7 µg/mL) | 1 µM (≈ 3.16 µg/mL) | 1 µM (≈ 3.16 µg/mL) | 4 µM (≈ 12.7 µg/mL) | 2 µM (≈ 6.33 µg/mL) | 2 µM (≈ 6.33 µg/mL) | 8 µM (≈ 25.3 µg/mL) | 2 µM (≈ 6.33 µg/mL) | 8 µM (≈ 25.3 µg/mL) | 1 µM (≈ 3.16 µg/mL) | 2 µM (≈ 6.33 µg/mL) | 
7 | OO [H2O2] |  |  |  |  |  |  |  |  |  |  |  |  |  |  |  |  | intracellular ROS generation [17]: high levels of ROS generation
8 | CC[C@H](C)[C@H](NC(=O)CN)C(=O)NCC(=O)N[C@@H](C)C(=O)N[C@H](C(=O)N[C@@H](CC(C)C)C(=O)N[C@@H](CCCCN)C(=O)N[C@H](C(=O)N[C@@H](CC(C)C)C(=O)N[C@H](C(=O)N[C@H](C(=O)NCC(=O)N[C@@H](CC(C)C)C(=O)N1CCC[C@H]1C(=O)N[C@@H](C)C(=O)N[C@@H](CC(C)C)C(=O)N[C@H](C(=O)N[C@@H](CO)C(=O)N[C@@H](Cc1c[nH]c2ccccc12)C(=O)N[C@H](C(=O)N[C@@H](CCCCN)C(=O)N[C@@H](CCCNC(=N)N)C(=O)N[C@@H](CCCCN)C(=O)N[C@@H](CCCNC(=N)N)C(=O)N[C@@H](CCC(N)=O)C(=O)N[C@@H](CCC(N)=O)C(N)=O)[C@@H](C)CC)[C@@H](C)CC)[C@@H](C)O)[C@@H](C)O)C(C)C)C(C)C [Melittin, melittin, reference compound] | 8 µM (≈ 22.8 µg/mL) | 8 µM (≈ 22.8 µg/mL) | 32 µM (≈ 91.1 µg/mL) | 8 µM (≈ 22.8 µg/mL) | 8 µM (≈ 22.8 µg/mL) | 8 µM (≈ 22.8 µg/mL) | 4 µM (≈ 11.4 µg/mL) | 8 µM (≈ 22.8 µg/mL) | 8 µM (≈ 22.8 µg/mL) | 8 µM (≈ 22.8 µg/mL) | 8 µM (≈ 22.8 µg/mL) | 8 µM (≈ 22.8 µg/mL) | 8 µM (≈ 22.8 µg/mL) | 8 µM (≈ 22.8 µg/mL) | 16 µM (≈ 45.5 µg/mL) | 8 µM (≈ 22.8 µg/mL) | calcein leakage from mammalian artificial liposomes (in words) [18]: concentration-dependent calcein leakage; cell death [19]: 100%
9 | histatin 5 |  |  |  |  |  |  |  |  |  |  |  |  |  |  |  |  | relative cytochrome c levels in the cytosol [20]: only minor alterations; SYTOX Green uptake (membrane permeabilization) [21]: did not induce membrane damage
